Earlier results in patent US20050059087A1, “Antibodies directed to the deletion mutants of epidermal growth factor receptor and uses thereof” (priority 2003, published 2005).

What was measured:
[1] = tested on: human acute lymphoblastic leukemia line CEM; details: in vitro; cited from earlier work
[2] = vs methotrexate, daunorubicin, vincristine; cited from earlier work
[3] = tested on: P388, L1210, and LY5178 murine leukemic cell suspensions; details: in vitro; cited from earlier work
L1210 cells = details: treatment of L1210 cells in vivo; cited from earlier work
[4] = tested on: P388 lymphocytic leukemia system; details: in vivo; cited from earlier work

COc1cc2cc(c1Cl)N(C)C(=O)C[C@H](OC(=O)[C@H](C)N(C)C(C)=O)[C@]1(C)O[C@H]1[C@H](C)[C@@H]1C[C@@](O)(NC(=O)O1)[C@H](OC)/C=C/C=C(\C)C2 [Maytansine]
Inhibitory concentration [1]: ≥ 10^−7 mg/ml
Cytotoxicity relative to conventional cancer chemotherapeutic agents [2]: 100 to 1000 fold
Inhibitory doses [3]: 10^−3 to 10^−1 µg/µl
Cells accumulating in mitosis (L1210 cells): 67%
Dosage range over which tumor growth was inhibited [4]: 50- to 100 fold
